Structures can show the parent of a compound that is named as a salt. Where two headings read alike, the source gives them in different places.
Legend:
Acetylcholinesterase = molecular target: T1, Acetylcholinesterase (Rattus norvegicus, UniProt P37136); experiment: in vitro inhibition of acetylcholinesterase assay; assay type: biochemical, rat (male Wistar, corpora striata)
T1 construct: corpora striata dissected free, weighted and homogenized in 19 volumes; from tissue; host or cells: male Wistar rat corpora striata, homogenate
Method: 1. 0.05M Phosphate Buffer (pH 7.2)
A solution of monobasic sodium phosphate monohydrate (6.85 g) in distilled water (100 mL) is added to a solution of dibasic sodium phosphate heptahydrate (13.4 g) and distilled water (100 mL) until a pH of 7.2 was attained. The solution was diluted 1 to 10 with distilled water.
3. 5,5-Dithiobisnitrobenzoic acid in Buffer
The 0.05M Phosphate Buffer (pH 7.2) was added to 5.5-dithiobisnitrobenzoic acid to a total volume of 100 mL. i.e., a quantity sufficient (gs) to 100 mL.
4. Stock Solution of Drug
A 2 millimolar stock solution of the test drug is prepared in a quantity sufficient of either acetic acid or dimethyl sulfoxide to volume with 5,5-Dithiobisnitrobenzene Acid in Buffer. Stock Solution of Drug is serially diluted (1:10) so that the final cuvette concentration is 10^-4 molar.
Male Wistar rats are decapitated, brains rapidly removed, corpora striata dissected free, weighted and homogenized in 19 volumes (approximately 7 mg protein/mL) of 0.05M phosphate Buffer (pH 7.2) using a Potter-Elvehjem homogenizer. A 25 μl aliquot of this suspension is added to 1 mL of the vehicle or various concentrations of the test drug and preincubated for 10 minutes at 37° C. Enzyme activity is measured with a Beckman DU-50 spectrophotometer with the following software and instrument settings:
6. Cuvettes--2 mL cuvettes using auto 6-sampler;
7. Blank--1 for each substrate concentration;
8. Interval time--15 seconds (15 or 30 seconds for kinetics);
9. Total time--5 minutes (5 to 10 minutes for kinetics);
13. Results--yes (gives slope); and
Reagents are added to the blank and sample cuvettes as follows: […]
Blank 0.8 mL 5.5-Dithiobisnitrobenzoic Acid
0.8 mL Substrate in Buffer
2. Control 0.8 mL 5.5-Dithiobisnitrobenzoic Acid/Enzyme
3. Drug 0.8 mL 5.5-Dithiobisnitrobenzoic Acid/Drug/Enzyme
Blank values are determined for each run to control for non-enzymatic hydrolysis of substrate and these values are automatically subtracted by the Kindata program available on kinetics soft-pac module. This program also calculates the rate of absorbance change for each cuvette.
Substrate concentration is 10 millimolar diluted 1:2 in assay yielding final concentration of 5 millimolar. 5,5-Dithiobisnitrobenzoic acid concentration is 0.5 millimolar yielding 0.25 millimolar final concentration. [formula]
IC50 values are calculated from log-probit analysis

Monoamine Oxidase A = molecular target: T2, Monoamine Oxidase A (Rattus norvegicus, UniProt P21396); experiment: in vitro inhibition of monoamine oxidase assay (monoamine oxidase A); assay type: biochemical, rat (male Wistar, whole brain minus cerebellum); settings: rat brain mitochondria, [3H]-5-hydroxytryptamine 200 μM, pH 7.4, 37° C., 30 min; log-probit
T2 construct: serves as the tissue source for mitochondrial monoamine oxidase; from tissue; host or cells: male Wistar rat whole brain minus cerebellum, 18,000 g pellet (P2)
T2 sequence (P21396 1-526): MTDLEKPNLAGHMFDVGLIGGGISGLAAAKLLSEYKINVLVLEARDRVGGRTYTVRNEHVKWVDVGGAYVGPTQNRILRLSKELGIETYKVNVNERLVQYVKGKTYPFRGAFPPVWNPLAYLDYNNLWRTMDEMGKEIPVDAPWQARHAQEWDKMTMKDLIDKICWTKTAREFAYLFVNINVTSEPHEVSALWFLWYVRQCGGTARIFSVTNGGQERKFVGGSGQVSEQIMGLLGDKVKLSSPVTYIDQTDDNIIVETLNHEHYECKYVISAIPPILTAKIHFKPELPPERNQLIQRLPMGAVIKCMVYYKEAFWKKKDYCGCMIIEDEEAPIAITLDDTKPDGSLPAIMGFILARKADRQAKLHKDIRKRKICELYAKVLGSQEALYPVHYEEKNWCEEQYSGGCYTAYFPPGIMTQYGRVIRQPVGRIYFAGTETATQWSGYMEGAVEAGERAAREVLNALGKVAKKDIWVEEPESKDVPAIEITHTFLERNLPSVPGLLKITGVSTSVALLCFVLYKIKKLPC
Description: (§1) In this assay, a modification of an assay described by M. V. Kindt, et al., Europ.
(§2) Male Wistar rats weighing 150-250 grams were sacrificed and the brains rapidly removed.

Monoamine Oxidase B = molecular target: T3, Monoamine Oxidase B (Rattus norvegicus, UniProt P19643); experiment: in vitro inhibition of monoamine oxidase assay (monoamine oxidase B); assay type: biochemical, rat (male Wistar, whole brain minus cerebellum); settings: rat brain mitochondria, [14C]-phenethylamine 200 μM, pH 7.4, 37° C., 30 min; log-probit
T3 construct: serves as the tissue source for mitochondrial monoamine oxidase; from tissue; host or cells: male Wistar rat whole brain minus cerebellum, 18,000 g pellet (P2)
T3 sequence (P19643 1-520): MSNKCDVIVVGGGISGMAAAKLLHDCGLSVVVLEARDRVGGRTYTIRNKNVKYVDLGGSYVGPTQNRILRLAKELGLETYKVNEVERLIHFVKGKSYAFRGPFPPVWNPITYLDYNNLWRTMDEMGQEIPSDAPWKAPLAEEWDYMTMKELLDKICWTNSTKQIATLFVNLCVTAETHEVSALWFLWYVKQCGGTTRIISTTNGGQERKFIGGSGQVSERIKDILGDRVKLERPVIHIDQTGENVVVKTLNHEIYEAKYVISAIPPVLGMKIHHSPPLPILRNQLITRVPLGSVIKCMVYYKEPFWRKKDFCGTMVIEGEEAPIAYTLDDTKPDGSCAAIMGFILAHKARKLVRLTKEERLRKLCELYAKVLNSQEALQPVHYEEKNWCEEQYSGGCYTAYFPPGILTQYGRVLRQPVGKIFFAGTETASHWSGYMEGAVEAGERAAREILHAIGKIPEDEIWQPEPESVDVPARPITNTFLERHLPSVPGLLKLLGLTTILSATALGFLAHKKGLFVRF
Description: as §1, §2

T1 sequence (P37136 32-614): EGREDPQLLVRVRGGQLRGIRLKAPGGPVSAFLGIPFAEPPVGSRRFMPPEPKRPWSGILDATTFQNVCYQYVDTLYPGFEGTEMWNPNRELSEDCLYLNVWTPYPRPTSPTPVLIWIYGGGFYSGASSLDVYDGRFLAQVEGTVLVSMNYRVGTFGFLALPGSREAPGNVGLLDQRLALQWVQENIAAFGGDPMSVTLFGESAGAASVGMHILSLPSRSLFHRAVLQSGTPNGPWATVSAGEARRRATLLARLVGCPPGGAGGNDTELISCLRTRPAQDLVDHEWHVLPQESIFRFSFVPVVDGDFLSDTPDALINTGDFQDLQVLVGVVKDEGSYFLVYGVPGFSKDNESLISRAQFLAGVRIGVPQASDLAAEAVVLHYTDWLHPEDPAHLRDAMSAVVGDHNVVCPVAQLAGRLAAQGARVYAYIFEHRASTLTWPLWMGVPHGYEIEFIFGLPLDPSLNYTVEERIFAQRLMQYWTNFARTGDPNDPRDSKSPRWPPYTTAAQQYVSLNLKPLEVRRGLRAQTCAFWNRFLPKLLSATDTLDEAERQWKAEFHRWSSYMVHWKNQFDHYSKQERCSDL

Structure (SMILES) | IC50 (Acetylcholinesterase; rat corpora striata homogenate, pH 7.2, acetylthiocholine 5 mM final, 10 min preincubation at 37° C., log-probit, read-out: Inhibition of Acetylcholinesterase Activity IC50) | IC50 (Monoamine Oxidase A) | IC50 (Monoamine Oxidase B) | IC50 (Acetylcholinesterase)
Fc1ccc(Cn2ccc(=Nc3noc4ccccc34)cc2)cc1 [3-[1-(4-Fluorophenyl)methyl-N-4(1H)-pyridiniminyl]-1,2-benzisoxazole hydrobromide] | 0.44 µM | – | – | –
c1ccc(CCn2ccc(=Nc3noc4ccccc34)cc2)cc1 [3-[1-(2-Phenylethyl)-N-4(1H)-pyridiniminyl]-1,2-benzisoxazole hydrobromide] | – | 3 µM | 15.9 µM | –
c1ccc(CCCn2ccc(=Nc3noc4ccccc34)cc2)cc1 [3-[1-(3-Phenylpropyl)-N-4(1H)-pyridiniminyl]-1,2-benzisoxazole hydrobromide] | – | – | – | 0.65 µM
CCCn1ccc(=Nc2noc3cc(Cl)ccc23)cc1 [6-Chloro-3-]1-propyl-N-4(1H)pyridiniminyl]-1,2-benzisoxazole hydrochloride] | – | 1.65 µM | 27.2 µM | –
COc1ccc2c(N=c3ccn(Cc4ccccc4)cc3)noc2c1 [6-Methoxy-3-[1-phenylmethyl-N-4(1H)-pyridiniminyl]-1,2-benzisoxazole hydrobromide] | – | 3 µM | 25.2 µM | 0.09 µM
c1ccc(Cn2ccc(=Nc3noc4ccccc34)cc2)cc1 [3-[1-Phenylmethyl-N-4(1H)-pyridiniminyl]-1,2-benzisoxazole hydrobromide] | – | 9 µM | 33.7 µM | 0.28 µM
